Data on eight compounds can be found in ChEMBL document CHEMBL1140558, “An atom efficient, solvent-free, green synthesis and antimycobacterial evaluation of 2-amino-6-methyl-4-aryl-8-[(E)-arylmethylidene]-5,6,7,8-tetrahydro-4H-pyrano[3,2-c]pyridine-3-carbonitriles” (2007).

Converted amounts (≈) assume the structure as drawn.

Usually MIC stands for the smallest concentration in the dilution series that meets the test's criterion for growth inhibition.

The test deals with Mycobacterium tuberculosis. Kind of test: Antimycobacterial activity against multidrug-resistant Mycobacterium tuberculosis by agar dilution method. The format is functional.
The compound `CN1CC2=C(OC(N)=C(C#N)C2c2ccc(F)cc2)/C(=C/c2ccc(F)cc2)C1` (stereo not drawn) showed an MIC of 0.97 µM (≈ 0.38 µg/mL).

Turning to `CN1CC2=C(OC(N)=C(C#N)C2c2cccc(F)c2)/C(=C/c2cccc(F)c2)C1` (stereo not drawn), it took 1.99 µM (≈ 0.779 µg/mL) to inhibit growth (MIC).

Compound `CN1CC2=C(OC(N)=C(C#N)C2c2ccc(N(C)C)cc2)/C(=C/c2ccc(N(C)C)cc2)C1` (stereo not drawn) registered an MIC of 0.43 µM (≈ 0.19 µg/mL).

Compound `CN1CC2=C(OC(N)=C(C#N)C2c2ccccc2Cl)/C(=C/c2ccccc2Cl)C1` (stereo not drawn) registered an MIC of 3.68 µM (≈ 1.56 µg/mL).

On to `CN1CC2=C(OC(N)=C(C#N)C2c2cccc([N+](=O)[O-])c2)/C(=C/c2cccc([N+](=O)[O-])c2)C1` (stereo not drawn), for which the MIC was 1.75 µM (≈ 0.78 µg/mL).

With `CN1CC2=C(OC(N)=C(C#N)C2c2ccc(Cl)cc2)/C(=C/c2ccc(Cl)cc2)C1` (stereo not drawn), the MIC is 1.84 µM (≈ 0.781 µg/mL).

`COc1c(N2CCNC(C)C2)c(F)cc2c(=O)c(C(=O)O)cn(C3CC3)c12` (stereo not drawn) [GATIFLOXACIN] registered an MIC of 8.34 µM (≈ 3.13 µg/mL).

Consider `NNC(=O)c1ccncc1` [ISONIAZID], for which the lowest concentration to inhibit growth (MIC) was 45.6 µM (≈ 6.25 µg/mL).
